In US4070469A, “Compound for the treatment of bovine mastitis” (priority 1975, dated 1978):
In brackets after ≈: the same amount, converted by molar mass. Like-named read-outs stand apart in the source and are kept apart here.

Tests used:
Staph.Aureus = assay: Minimal bactericidal activity (MBC) in milk, field isolates; format: cell-based; settings: Staphylococcus aureus, in milk at pH 7.2 - 7.4
Text: (§1) The activity of some of said nitrofuryl quinolines derivatives against Strep.uberis and Stap.Aureus in milk has been compared with the activity of some of the compounds so far utilised in the treatment of bovine mastitis. The results are shown in Table I. (The nitrofuryl quinoline derivatives have general formula [drawing 1] the meaning of R, A, R', B, Y, X and Z being given in the Table. R1 =O whenever indicated then the N-oxide is concerned; NF stands for nitrofuryl)
(§2) Minimal Bactericidal/Activity (MBC) of representative Nitrofuryl
(§3) in mcg/ml in milk at pH 7.2 - 7.4. Versus Standards (Field

Strep.uberis = assay: as above; format: cell-based; settings: Streptococcus uberis, in milk at pH 7.2 - 7.4
Text: as §1, §2, §3

[1] = field isolate 2337, read-out: Minimal Bactericidal Activity (MBC), Staph.Aureus 2337
[2] = field isolate 2372, read-out: Minimal Bactericidal Activity (MBC), Staph.Aureus 2372
[3] = field isolate 60B, read-out: Minimal Bactericidal Activity (MBC), Strep.uberis 60B
[4] = field isolate 127A, read-out: Minimal Bactericidal Activity (MBC), Strep.uberis 127A

Row | SMILES | MBC (Staph.Aureus; [1]) | MBC (Staph.Aureus; [2]) | MBC (Strep.uberis; [3]) | MBC (Strep.uberis; [4])
1 | O=C1OC(CN2CCOCC2)CN1/N=C/c1ccc([N+](=O)[O-])o1 (stereo not shown) [Furaltadone, reference compound] | 10 µg/mL (≈ 30.8 µM) | 10 µg/mL (≈ 30.8 µM) | 1 µg/mL (≈ 3.08 µM) | > 10 µg/mL
2 | Cc1cc(-c2ccc([N+](=O)[O-])o2)c2ccc(N)c(C)c2n1 [Compound 35] | 5 µg/mL (≈ 17.6 µM) | 5 µg/mL (≈ 17.6 µM) | 5 µg/mL (≈ 17.6 µM) | 10 µg/mL (≈ 35.3 µM)
3 | CCc1ccc2c(c1)c(-c1ccc([N+](=O)[O-])o1)cc(CC)[n+]2[O-] [Compound 32] | > 10 µg/mL | > 10 µg/mL | 1 µg/mL (≈ 3.2 µM) | > 10 µg/mL
4 | COc1cc2c(-c3ccc([N+](=O)[O-])o3)cc(C)[n+]([O-])c2cc1OC [Compound 39] | 10 µg/mL (≈ 30.3 µM) | 0.5 µg/mL (≈ 1.51 µM) | 0.25 µg/mL (≈ 0.757 µM) | 1 µg/mL (≈ 3.03 µM)
